Measured values as given in patent US20250171432A1, “COMPOUNDS AND METHODS OF USE” (Tango Therapeutics, Inc., priority 2022, published 2025).

Key:
Type in all cases: cell-based
[1] = system: SDMA (PRMT5 activity) in HAP1 MTAP-intact cell line; assay: SDMA in-cell western assay, HAP1 MTAP-intact; conditions: Homo sapiens, HAP1, 24 h, SDMA in-cell western, HAP1 MTAP-intact cells, 24 hours compound incubation
[2] = system: SDMA (PRMT5 activity) in HAP1 MTAP-deleted cell line; assay: SDMA in-cell western assay, HAP1 MTAP-deleted; conditions: for IC50 / IC90: Homo sapiens, SDMA in-cell western, HAP1 MTAP-deleted cells, 24 hours compound incubation; for Hap1 MTAP intact/deleted ratio: ratio of SDMA IC50 in HAP1 MTAP-intact to HAP1 MTAP-deleted cell line
[3] = system: HAP1 MTAP-deleted cell line; assay: Viability assay (CellTiter-Glo), HAP1 MTAP-deleted; conditions: Homo sapiens, 168 h, HAP1 MTAP-deleted cells, 7 days
Summary of the method: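 HAP1 MTAP-deleted and MTAP-intact cells seeded, then dosed next day (n=3, 0.2% DMSO) and grown 7 days. Viability by CellTiter-Glo luminescence, expressed as % of DMSO control per cell line.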

| SMILES | IC50 [1] | IC50 [2] | IC90 [2] | Hap1 MTAP intact/deleted ratio [2] | IC50 [3] |
| --- | --- | --- | --- | --- | --- |
| CCc1cc(NC(=O)C(=O)N2C[C@@H](C)CC[C@@H]2c2ccc3cn([C@@H]4C[C@@H](C)CN(C)C4)nc3c2)cnc1N (relative stereo) [Compound 60, N-(6-amino-5-ethylpyridin-3-yl)-2-((2R,5S)-2-(2-(1,5-dimethylpiperidin-3-yl)-2H-indazol-6-yl)-5-methylpiperidin-1-yl)-2-oxoacetamide] | > 50 nM | < 5 nM | < 75 nM | A (“A” indicates an IC50 ratio greater than or equal to 30 fold) | < 100 nM |
| CCc1cc(NC(=O)C(=O)N2C[C@@H](C)CC[C@@H]2c2ccc3sc([C@H]4CN(C)C(C)(C)C4)nc3c2)cnc1N (single isomer, unassigned) [Compound 27] | 5 to 50 nM | < 5 nM | < 75 nM | B (“B” indicates an IC50 ratio greater than or equal to 15 fold but lower than 30 fold) | < 100 nM |
| COc1ncc(NC(=O)C(=O)N2C[C@@H](C)CC[C@@H]2c2ccc3sc(CC(C)N4CCCC4)nc3c2)cc1C(N)=O (mixture of isomers) [Compound 57, 2-methoxy-5-(2-((2R,5S)-5-methyl-2-(2-(2-(pyrrolidin-1-yl)propyl)benzo[d]thiazol-5-yl)piperidin-1-yl)-2-oxoacetamido)nicotinamide] | > 50 nM | < 5 nM | < 75 nM | A (“A” indicates an IC50 ratio greater than or equal to 30 fold) | < 100 nM |
| COc1ncc(NC(=O)C(=O)N2C[C@@H](C)CC[C@@H]2c2ccc3cn([C@H]4CCOC4)nc3c2)cc1C(N)=O (racemic) [Compound 97, 2-methoxy-5-[[2-oxo-2-[rac-(2R,5S)-5-methyl-2-(2-tetrahydrofuran-3-ylindazol-6-yl)-1-piperidyl]acetyl]amino]pyridine-3-carboxamide] | > 50 nM | 5 to 50 nM | 75 to 125 nM | A (“A” indicates an IC50 ratio greater than or equal to 30 fold) | 100 to 1000 nM |
| CCc1cc(NC(=O)C(=O)N2C[C@@H](C)CC[C@@H]2c2ccc3cn(CCN(C)C)nc3c2)cnc1N [Compound 38, N-(6-amino-5-ethyl-3-pyridyl)-2-oxo-2-[(2R,5S)-2-[2-[2-(dimethylamino)ethyl]indazol-6-yl]-5-methyl-1-piperidyl]acetamide] | > 50 nM | < 5 nM | < 75 nM | B (“B” indicates an IC50 ratio greater than or equal to 15 fold but lower than 30 fold) | < 100 nM |

Continued, in another order:

| IC50 [1] | IC50 [2] | IC90 [2] | SMILES | Hap1 MTAP intact/deleted ratio [2] | IC50 [3] |
| --- | --- | --- | --- | --- | --- |
| > 50 nM | < 5 nM | < 75 nM | CCc1cc(NC(=O)C(=O)N2C[C@@H](C)CC[C@@H]2c2ccc3ccc(C4CCN(C)CC4)cc3c2)cnc1N [Compound 123, N-(6-amino-5-ethylpyridin-3-yl)-2-((2R,5S)-5-methyl-2-(7-(1-methylpiperidin-4-yl)naphthalen-2-yl)piperidin-1-yl)-2-oxoacetamide] | A (“A” indicates an IC50 ratio greater than or equal to 30 fold) | < 100 nM |
| 5 to 50 nM | < 5 nM | < 75 nM | CCc1cc(NC(=O)C(=O)N2C[C@@H](C)CC[C@@H]2c2ccc3sc([C@@H]4C[C@@H](C)CN(C)C4)nc3c2)cnc1N (racemic) [Compound 118, N-(6-amino-5-ethylpyridin-3-yl)-2-((2R,5S)-2-(2-(1,5-dimethylpiperidin-3-yl)benzo[d]thiazol-5-yl)-5-methylpiperidin-1-yl)-2-oxoacetamide] | C (“C” indicates an IC50 ratio of less than 15 fold) | < 100 nM |
| > 50 nM | < 5 nM | < 75 nM | Cc1cc2[nH]c(C(=O)N3C[C@@H](C)CC[C@@H]3c3ccc4sc(C5CCN(C)CC5)nc4c3)cc2nc1N [Compound 110, (5-amino-6-methyl-1H-pyrrolo[3,2-b]pyridin-2-yl)((2R,5S)-5-methyl-2-(2-(1-methylpiperidin-4-yl)benzo[d]thiazol-5-yl)piperidin-1-yl)methanone] | A (“A” indicates an IC50 ratio greater than or equal to 30 fold) | < 100 nM |
